“Also recorded” adds a separate entry of the source.
What was measured:
HOP-92 cells [1] = experiment: Cell cycle analysis (propidium iodide flow cytometry); type: cell-based, human
Description: Research has been done on how the most powerful antitumor compound, 4e, affects the HOP-92 cell cycle’s growth and apoptosis.
Researcher : Dr.Mohamed Hawas email: mohhawwas80@gmail.com mob. 01151345909 Assay : Cell Cycle Analysis mohamedhassan.pharm.ast@azhr.edu.eg Samples : 02 samplescell line : ---Ref. : ---Date : 00-00-2022Reader : BD FACSCaliburKit used : ab139418_Propidium Iodide Flow Cytometry Kit/BDSolvent : DMSOAssay samples : Cell culture

Bcl-2 = Bcl-2 level in HOP-92 cells (RT-PCR fold change); type: cell-based, human; details: for Gene Expression FLD 2^ ΔΔCT bcl2: vs GAPDH, E=1.869, control = 1
Description: In the depicted findings, compound 4e affected Bcl-2, caspase-3, and caspase-9, increasing the expression of caspase-3/9 and decreasing the expression of Bcl-2, confirming the apoptotic status.
Researcher : Dr.Mohamed Hawas email: mohhawwas80@gmail.com mob. 01151345909 Assay : Cell Cycle Analysis mohamedhassan.pharm.ast@azhr.edu.eg Assay : RT-PCR Samples : 02 SamplesCell lines : ----Ref. : ----Date : 12-06-2023Reader : Rotorgene RT- PCR system Kit used : Qiagen RNA extraction/BioRad syber green PCR MMXSolvent : DMSOAssay samples : Cell Lysate
Mix all reagents thoroughly without foaming before use. Wash the microwells twice with approximately 300 μL Wash Buffer per well with thorough aspiration of microwell contents between washes. Take caution not to scratch the surface of the microwells. After the last wash, empty the wells and tap microwell strips on absorbent pad or paper towel to remove excess Wash Buffer. Use the microwell strips immediately after washing or place upside down on a wet absorbent paper for not longer than 15 minutes. […] Add 100 μL of Sample Diluent in duplicate to all standard wells and to the blank wells. Prepare standard (1:2 dilution) in duplicate ranging from 32 ng/mL to 0.5 ng/mL. Add 100 μL of Sample Diluent, in duplicate, to the blank wells. Add 80 μL of Sample Diluent, in duplicate, to the sample wells. Add 20 μL of each Sample, in duplicate, to the designated wells. Add 50 μL of diluted biotin-conjugate to all wells, including the blank wells. […] The point, at which the substrate reaction is stopped, is often determined by the ELISA reader. Many ELISA readers record absorbance only up to 2.0 O.D. Therefore, the color development within individual microwells must be watched by the person running the assay and the substrate reaction stopped before positive wells are no longer properly detectable. […] Results must be read immediately after the Stop Solution is added or within one hour if the microwell strips are stored at 2 - 8°C in the dark. Read absorbance of each microwell on a spectrophotometer using 450 nm as the primary wave length.

HOP-92 cells [2] = experiment: Annexin V-FITC/PI apoptosis assay; type: cell-based, human
Description: Using the Annexin V-FITC/PI test, the tendency of compound 4e to cause apoptosis and its potential association with cytotoxic action were evaluated. The cells were labeled with annexin V-FITC/PI and cultured for 24 h to detect any signs of apoptosis. […] According to research on early and late apoptosis and DNA content (Figs. 9, 10), 4e with 3.4% necrosis is probably going to result in a large amount of apoptosis (Table 5 and Fig. 10).
Cell apoptosis were analyzed by the Annexin V-FITC Apoptosis Detection Kit (BioVision Research Products, USA). Thereafter, 1-5 x 10^5 cells was collected by centrifugation and resuspend in 500 μl of 1X Binding Buffer. Added 5 μl of Annexin V-FITC and 5 μl of propidium iodide (PI […], optional.). The cells incubated at room temperature for 5 min in the dark;Analyzed by Annexin V-FITC binding flow cytometric method (Ex = 488 nm; Em = 530 nm) usingFITC signal detector (usually FL1) and PI staining by the phycoerythrin emissionsignal detector (usually FL2).For adherent cells, we gently trypsinized and washed cells once with serum-containing mediabefore incubation with Annexin V-FITC (A.3-5).

normal cell line WI-38 = details: human, 0.4 µM
in vitro = details: human, % viability

Compound: C/C(=N\Nc1ccc(S(N)(=O)=O)cc1)c1cnn(-c2cc(=O)[nH]c3ccc(Br)cc23)c1C [Compound 4e, (E)-4-(2-(1-(1-(6-bromo-2-oxo-1,2-dihydroquinolin-4-yl)-5-methyl-1H-pyrazol-4-yl)ethylidene)hydrazineyl)benzenesulfonamide]
- DNA content Comment (HOP-92 cells [1]; HOP92 cells): cell growth arrest@ G1
- DNA content %G2/M (HOP-92 cells [1]; HOP92 cells, control 16.08): 14.6%
- DNA content %S (HOP-92 cells [1]; HOP92 cells, control 35.66): 31.29%
- DNA content %G0-G1 (HOP-92 cells [1]; HOP92 cells, control 48.26): 54.11%
- Comment (cell cycle arrest) (HOP-92 cells [1]; HOP-92, 24 h at IC50): cell growth is arrested at the G1 phase; also recorded: cell cycle arrest at the G0-1 phase; also recorded: Cell growth arrest at G1phase
- DNA content % G0–G1 (HOP-92 cells [1]; HOP-92, 24 h at IC50): 54.11%
- DNA content %G2/M (HOP-92 cells [1]; HOP-92, 24 h at IC50): 14.6%
- DNA content %S (HOP-92 cells [1]; HOP-92, 24 h at IC50): 31.3%
- RT-PCR Fold Change FLD Bcl2 (Bcl-2; control = 1): 0.299
- Gene Expression FLD 2^ ΔΔCT bcl2 (Bcl-2): 0.2991
- Apoptosis Late (HOP-92 cells [2]; HOP92 cells, control 0.15): 11.28
- Apoptosis Early (HOP-92 cells [2]; HOP92 cells, control 0.69): 22.91
- Necrosis (HOP-92 cells [2]; HOP92 cells, control 1.3): 3.4
- Apoptosis Total (HOP-92 cells [2]; HOP92 cells, control 2.14): 37.59
- Apoptosis Early (HOP-92 cells [2]; HOP-92, 24 h at IC50): 22.91%
- Apoptosis Late (HOP-92 cells [2]; HOP-92, 24 h at IC50): 11.28%
- Apoptosis Total (HOP-92 cells [2]; HOP-92, 24 h at IC50): 37.59%
- Necrosis (HOP-92 cells [2]; HOP-92, 24 h at IC50): 3.4%

Compound: CN[C@@H]1C[C@H]2O[C@@](C)([C@@H]1OC)n1c3ccccc3c3c4c(c5c6ccccc6n2c5c31)C(=O)NC4 [Staurosporine, reference compound]
- % viability (normal cell line WI-38): 84.55%
- viability at 0.4 µM (in vitro): 84.6%
- viability at 6.3 µM (in vitro): 56.2%
- viability at 25 µM (in vitro): 46.8%
- viability at 1.6 µM (in vitro; WI38, 1.6uM (log conc. 0.19)): 68.1%
- viability at 100 µM (in vitro; WI38, 100uM (log conc. 2)): 37.4%
- Gene Expression FLD 2^ ΔΔCT bcl2 (Bcl-2): 0.3265

From article PMC12638379, “An innovative approach to development of new pyrazolylquinolin-2-one hybrids as dual EGFR and BRAF^V600E inhibitors” (Molecular Diversity, 2025)
